Laboratory results: PubChem BioAssay (NCI)
“And” between values parts separate entries of the source, which are not always exact repeats. Equal entries are not always repeated.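 The compound was tested at five concentrations on cells cultured in 96-well plates, with a 48-hour exposure period. Here, GI50 denotes the concentration required for 50% inhibition of growth. TGI is the concentration that stops growth completely.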

Key:
Test in all cases: NCI-60 cell line screen, 48 h
786-0 renal = tested on: 786-0 renal
DU-145 prostate = tested on: DU-145 prostate
HL-60(TB) leukemia = tested on: HL-60(TB) leukemia
MCF7 breast = tested on: MCF7 breast
MOLT-4 leukemia = tested on: MOLT-4 leukemia
OVCAR-3 ovarian = tested on: OVCAR-3 ovarian
OVCAR-5 ovarian = tested on: OVCAR-5 ovarian
SF-539 CNS = tested on: SF-539 CNS
SNB-75 CNS = tested on: SNB-75 CNS
U251 CNS = tested on: U251 CNS
HOP-62 NSCLC = tested on: HOP-62 NSCLC

Structure (SMILES)	TGI (786-0 renal) [µM]	TGI (DU-145 prostate)	TGI (HL-60(TB) leukemia)	TGI (MCF7 breast) [µM]	TGI (MOLT-4 leukemia)	TGI (OVCAR-3 ovarian)	TGI (OVCAR-5 ovarian)	TGI (SF-539 CNS)	TGI (SNB-75 CNS)	TGI (U251 CNS)	GI50 (DU-145 prostate) [µM]	GI50 (HOP-62 NSCLC) [µM]	TGI (HOP-62 NSCLC)	GI50 (MOLT-4 leukemia) [µM]	GI50 (OVCAR-3 ovarian) [µM]	GI50 (OVCAR-5 ovarian) [µM]	GI50 (SF-539 CNS) [µM]	GI50 (SNB-75 CNS) [µM]	GI50 (U251 CNS) [µM]
CC[C@H](C)C1=C(OC(C)=O)[N@+]2([O-])Oc3ccc(-c4c(OC(C)=O)c(OC(C)=O)c(-c5ccc(OC(C)=O)cc5)c(OC(C)=O)c4OC(C)=O)cc3O[C@]2([C@@H](C)CC)C(=O)N1OC(C)=O	33.8	> 50 µM	21.7 µM	> 50	36 µM	23.4 µM	> 50 µM	28.5 µM	39.5 µM	> 50 µM									
CC(=O)C1(O)Cc2c(O)c3c(c(O)c2C(OC2CC(N)C(O)C(C)O2)C1)C(=O)c1ccccc1C3=O (stereo unspecified)	0.0409	0.438 µM and 0.0587 µM	0.0806 µM and < 0.0108 µM	1.5	0.0122 µM and < 0.109 µM	0.987 µM and 0.475 µM	0.842 µM and 0.23 µM	0.199 µM and 0.0511 µM	0.594 µM and 0.103 µM	0.419 µM and 0.13 µM	< 0.0104	< 0.0126	0.275 µM and 0.118 µM	0.00182	0.0375	0.0261	0.0116	0.0293	< 0.0115
O=C(O)CC(O)(C(=O)O)C(O)C(=O)O (stereo unspecified)	> 1000	> 1000 µM	> 1000 µM	> 1000	> 1000 µM	> 1000 µM	> 1000 µM	> 1000 µM	> 1000 µM	> 1000 µM			> 1000 µM						
COc1ccccc1N=C1SCCN1C(=S)Nc1ccc(S(=O)(=O)/N=C/N(C)C)cc1	> 100	> 100 µM	> 100 µM	83.7	> 100 µM	> 100 µM	> 100 µM	> 100 µM	98.4 µM	> 100 µM			> 100 µM						
C/C=C1\CC(C(=O)OCC)CCCCCCCCCCC1=O (stereo unspecified)	> 100	> 100 µM	> 100 µM	> 100	> 100 µM		> 100 µM	> 100 µM	> 100 µM	> 100 µM			> 100 µM						
C=CC1(c2ccc(OC)cc2)OCCCO1	> 100	> 100 µM	> 100 µM	> 100	> 100 µM	> 100 µM	> 100 µM	> 100 µM	> 100 µM	> 100 µM			> 100 µM						
COc1cc2c(cc1OCCCCCOc1cc3c(cc1OC)C(=O)N1CCC[C@H]1CN3)N=C[C@@H]1CCCN1C2=O	63.2	> 100 µM	30 µM	> 100	9.24 µM	44.7 µM	69.4 µM	20.4 µM	95.2 µM	5.24 µM			31.5 µM						
NC(N)=NCC(N)C(=O)O (stereo unspecified)	> 100	> 100 µM	> 100 µM	> 100		> 100 µM	> 100 µM	> 100 µM	> 100 µM	> 100 µM			> 100 µM						
CCOP(=O)(OCC)C(C)(C)OC(=O)NC#N	> 100	> 100 µM	> 100 µM	> 100	> 100 µM	> 100 µM	> 100 µM	> 100 µM	> 100 µM	> 100 µM			> 100 µM						
C=C1c2nc3ccccc3n2C=C(c2ccc(OC)cc2)N1c1ccc(OCCN2CCOCC2)cc1	> 100	> 100 µM	> 34.8 µM	> 100	> 100 µM	> 100 µM	> 100 µM	> 100 µM	> 100 µM	> 100 µM			> 100 µM						
Cc1sc2nc3n(c(=O)c2c1C)N=C(c1ccc([N+](=O)[O-])cc1)CS3	> 100	> 100 µM	> 100 µM	> 100	> 100 µM	> 100 µM	> 100 µM	> 100 µM	> 100 µM	> 100 µM			> 100 µM						
CCOP(=O)(OCC)C(Nc1ccc(F)cc1)c1ccccc1 (stereo unspecified)	> 100	> 100 µM	> 100 µM	> 100	> 100 µM	> 100 µM	> 100 µM	> 100 µM	> 100 µM	> 100 µM			> 100 µM						
C=CCC(CNC(=O)OCc1ccccc1)OC(=O)OCc1ccccc1 (stereo unspecified)	> 100	> 100 µM	> 100 µM	> 100	> 100 µM	> 100 µM	> 100 µM	> 100 µM	> 100 µM	> 100 µM			> 100 µM						
C[N+](C)(N)c1nc(N)c(C#N)c(C#N)c1C#N		> 10 µM	> 10 µM	> 10	> 10 µM	> 10 µM	> 10 µM	> 10 µM	> 10 µM	> 10 µM			> 10 µM						
OCC(O)C(O)C(O)C(O)/C=N/Nc1nc(O)c(/C=C2\C=Nc3ccccc32)[nH]1 (stereo unspecified)	> 100	> 100 µM	> 100 µM	> 100	> 100 µM	> 100 µM	> 100 µM	> 100 µM	> 100 µM	> 100 µM			> 100 µM						
CN(C)c1ccc(/C=c2/c3cc([N+](=O)[O-])ccc3n3c2cc(-c2ccccc2)[n+]3C)cc1	10.3	6.68 µM	1.72 µM	8.07	8.85 µM	5.48 µM	10.8 µM	3.6 µM	3.79 µM	1.32 µM			10.1 µM						
CC1CN=C(c2ccc(COc3ccc(C4=NCC(C)N4)cc3)cc2)N1 (stereo unspecified)	> 100	> 100 µM	> 100 µM	> 100	> 100 µM	> 100 µM	> 100 µM	> 100 µM	64.4 µM	> 100 µM			> 100 µM						
CCCC1(N)CC(OC)OC(C)C1O (stereo unspecified)	> 100	> 100 µM	> 100 µM	> 100	> 100 µM	> 100 µM	> 100 µM	> 100 µM	> 100 µM	> 100 µM			> 100 µM						
COc1ccc(C[C@@H]2OC3(C=CC(=O)C=C3)O[C@H]2Cc2ccc(OC)cc2)cc1	0.412	5.32 µM	5.04 µM	5.68	2.01 µM	2.31 µM	2.05 µM	2.63 µM	3.04 µM	2.75 µM			3.59 µM						
COc1cc(C=O)cc(C=Nc2ccc(S(N)(=O)=O)cc2)c1O		> 100 µM	75.1 µM	> 100	64.2 µM	> 100 µM	> 100 µM	7.94 µM	> 100 µM	> 100 µM			48.5 µM						
CC(=O)OCC1OC(N2C(S)=C(C#N)C(c3ccco3)C(C(C)=O)=C2c2ccccc2)C(OC(C)=O)C(OC(C)=O)C1OC(C)=O (stereo unspecified)	> 100	> 100 µM	> 100 µM	> 100	> 100 µM	> 100 µM	> 100 µM	> 100 µM	> 100 µM	> 100 µM			45.1 µM						
C#CCCCC(=O)N(C(=O)CS(=O)CC)c1ccccc1 (stereo unspecified)	> 100	> 100 µM	> 100 µM	> 100	> 100 µM	> 100 µM	> 100 µM	> 100 µM	> 100 µM	> 100 µM			> 100 µM						
C=CC(Br)(CBr)CCC(Br)C(C)C (stereo unspecified)	2.93	22.8 µM	2.04 µM	3.75	5.21 µM	8.9 µM	29.6 µM	6.02 µM	6.13 µM	12.6 µM			9.71 µM						
COc1ccccc1NS(=O)(=O)c1ccc2ncn(NS(=O)(=O)c3ccc(Cl)cc3)c(=O)c2c1	> 100	> 100 µM	> 100 µM	> 100	> 100 µM	> 100 µM	> 100 µM	> 100 µM	> 100 µM	> 100 µM			> 100 µM						
CN1C(=O)N(C)C2(CCN(CCCCCCF)CC2)C1=O	> 100	> 100 µM	> 100 µM	> 100		> 100 µM	> 100 µM	> 100 µM	> 100 µM	> 100 µM			> 100 µM						
COc1ccccc1NCC(=O)Nn1c(C)nc2ccc(S(=O)(=O)Nc3ccccc3OC)cc2c1=O	> 100	> 100 µM	> 100 µM	> 100	> 100 µM	> 100 µM	> 100 µM	> 100 µM	> 100 µM	> 100 µM			> 100 µM						
CCCCCCCCCCCCCCCCP(=O)([O-])OCC[N+](C)(C)C	19.9	28.3 µM	17.9 µM	35.3	33.4 µM	31.6 µM	21.8 µM	39.8 µM	29 µM	31.2 µM			31 µM						
Cc1cccc(NC2=NCCO2)c1Cl	> 100	> 100 µM	> 100 µM	> 100	> 100 µM		> 100 µM	> 100 µM	> 100 µM	> 100 µM			> 100 µM						
Nc1ccc(-c2nc3ccccc3s2)cc1Br	> 100	> 100 µM	> 100 µM	> 100	> 100 µM	> 100 µM	> 100 µM	> 78.9 µM	> 86.4 µM	> 100 µM			> 68.3 µM						
CC(=O)N(CN1C(=O)CCC1C(=O)O)c1ccccc1Cl (stereo unspecified)	> 100	> 100 µM	> 100 µM	> 100	> 100 µM	> 100 µM	> 100 µM	> 100 µM	> 100 µM	> 100 µM			> 100 µM						
